# Data as given in patent US9567368B2, “Peptide tyrosinase activators” (Escape Therapeutics, Inc., priority 2013, dated 2017).
# Where no end group is shown, it is not given here.
# Tests used:
# [1] = tested on: B16-F1 mouse melanoma cells; assay: Melanin content measurement (extracellular and intracellular) in B16 cells; assay type: cell-based; settings: relative to control
# Protocol: (§1) B16-F1 mouse melanoma cells (CRL-6323) were obtained and cultured in DMEM containing 10 percent fetal bovine serum, 100 units per milliliter (U/mL) penicillin, 0.1 mg/mL streptomycin, and 0.25 microgram per milliliter (μg/mL) amphotericin B at 37 degrees Celsius in a humidified 95 percent air/5 percent CO2 incubator. Drug treatment began 24 hours after seeding. Cells were harvested 72 hours later and melanin content and tyrosinase activity determined in triplicate.
# Extracellular melanin was estimated spectro-photometrically based on its absorption of light at 475 nanometers. After 72 hours treatment period, medium was collected and centrifuged (800×g for 10 minutes) and absorbance read at 475 nanometers. For intracellular melanin content, cells were collected by centrifugation and resuspended in PBS. Aliquots were removed for cell counting and protein estimation. To the remaining suspension, an equal volume of ethanol:ether (1:1 volume to volume) was added in order to remove opaque substances other than melanin which is not soluble in ethanol/ether (see, for example, Oikawa et al., Yale J. Biol. Med., 1973, 46: 500-507). After further centrifugation at 3000×g for 5 minutes, the precipitate was solubilized by treatment with 1 milliliter of 1 N NaOH solution at 80 degrees Celsius for 30 minutes in capped tubes. The absorbance was measured at 475 nanometers and compared to a standard curve prepared from standard dopa-melanin dissolved in the same solution. Melanin content per microgram (μg) cellular protein was calculated and expressed as a percentage of control.
# FIGS. 2A-2B show the effect of P9 and P10 on extracellular and intracellular melanin content. […] In a specific embodiment, general materials and methods include 3×10E5 B16 cells per well incubated for 72 hours. Control wells had media only. Other treatments were 600 micromolar L-tyrosine; 50 microgram per milliliter scoparone; 300 micromolar IBMX; 300 micromolar P9; and 300 micromolar P10. Data are expressed as a percentage of the control and are mean±SEM of three separate experiments and analyzed by one-way ANOVA. On the graph, for the bar corresponding to extracellular data (indicated by “*”), P<0.01 versus extracellular control, and for the second bar corresponding to intracellular data (indicated by “**”), P<0.01 versus intracellular control.
# [2] = biological target: T1, B16 tyrosinase (Mus musculus, UniProt P11344); assay: Assay of B16 tyrosinase activity (DOPA oxidase activity); assay type: cell-based; settings: for B16 tyrosinase activity increase: 72 hours incubation, relative to control cells; for EC50: approximate, see FIG. 3, read-out: EC 50 (dose that produces half the maximum response)
# T1 construct: host or cells: B16-F1 mouse melanoma cells
# T1 sequence (P11344 19-533): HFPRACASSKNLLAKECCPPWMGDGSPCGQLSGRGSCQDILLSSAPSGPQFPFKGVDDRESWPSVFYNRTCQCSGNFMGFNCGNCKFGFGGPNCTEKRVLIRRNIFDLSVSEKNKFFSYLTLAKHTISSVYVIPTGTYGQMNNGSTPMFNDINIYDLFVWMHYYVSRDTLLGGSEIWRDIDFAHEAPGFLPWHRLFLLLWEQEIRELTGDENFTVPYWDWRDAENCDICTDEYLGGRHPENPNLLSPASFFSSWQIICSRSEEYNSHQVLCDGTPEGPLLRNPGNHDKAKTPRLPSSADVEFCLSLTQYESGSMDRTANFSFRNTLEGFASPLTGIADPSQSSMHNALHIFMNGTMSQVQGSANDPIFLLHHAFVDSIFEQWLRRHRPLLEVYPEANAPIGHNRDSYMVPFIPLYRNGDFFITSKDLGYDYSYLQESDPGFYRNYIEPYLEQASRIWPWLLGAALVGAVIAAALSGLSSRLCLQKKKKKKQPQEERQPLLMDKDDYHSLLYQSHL
# Protocol: as §1
# Tyrosinase activity was assayed as DOPA oxidase activity. This can be according to traditional or modified assaying methods (see, for example, Yang et al., Acta Pharmacol. Sin. 2006, 27: 1467-1473). Cells were washed twice with PBS and lysed with 20 […] (mmol/L) Tris-0.1 percent Triton X-100 (pH 7.5). Tyrosinase activity was analyzed spectrophotometrically by following the oxidation of DOPA to DOPAchrome at 475 nanometers. The reaction mixture containing 100 microliter (μL) of freshly prepared substrate solution [0.1 percent L-DOPA in 0.1 mol/L sodium phosphate (pH 6.8)] and 50 microliters (μL) of enzyme solution was incubated at 37 degrees Celsius. Absorbance change was measured during the first 10 minutes of the reaction while the increase of the absorbance was linear, and corrections for auto-oxidation of L-DOPA in the controls were made. Activities were expressed as a percentage of control cells.
# (§2) For the tyrosinase activity, the reaction mixture containing 100 microliter of freshly prepared substrate solution [0.1 percent L-DOPA in 0.1 moles per liter sodium phosphate (pH 6.8)] and 50 microliters of enzyme solution was incubated at 37 degrees Celsius. The absorbance change was measured during the first 10 minutes of the reaction while the increase of the absorbance was linear, and corrections for auto-oxidation of L-DOPA in the controls were made. Activities were expressed as a percentage of the control cells. MTT was performed following the manufacturer's protocol. Data are expressed as a percentage of control and are mean±SEM of three separate experiments.
# [3] = tested on: mushroom tyrosinase; assay: Assay of mushroom tyrosinase activity (L-tyrosine substrate, dopachrome at 475 nm); assay type: biochemical; settings: for mushroom tyrosinase activity increase: 1 millimolar
# Protocol: The effect of pentapeptides P9 and P10 on mushroom tyrosinase activity was determined in vitro using L-tyrosine as the substrate (see, for example, Piao et al., Chem. Pharm. Bull. (Tokyo), 2002, 50: 309-311). The experiment was conducted in a 96-well flat-bottomed plate. Each well contained 80 microliters of 0.067 molar potassium phosphate buffer (pH 6.8), 40 microliters of 5 milligrams per milliliter L-tyrosine dissolved in 0.067 molar potassium phosphate buffer (pH 6.8), 40 microliters of the different concentrations of P9 or P10 dissolved in the same buffer, and 40 microliters of 480 units per milliliter mushroom tyrosinase solution. The final volume of each well was 200 microliters, containing […] L-tyrosine, 96 units per millileter tyrosinase and varying concentrations of P9 or P10, ranging from 30 micromolar to 1 millimolar. In the control wells, P9 and P10 were substituted with buffer solution and adjusted to a 200 microliters total volume. The assay mixture was incubated at 37 degrees Celsius and optical density (OD), which correlates to the amount of dopachrome produced, was measured periodically at 475 nanometers using a microplate reader (e.g., a Varioskan microplate reader from Thermo Electron Corporation).
# FIGS. 4A and 4B show mushroom tyrosinase activity increased by 123±4 percent and 156±4 percent at 1 millimolar P9 and P10, respectively. […] In the control wells, the reaction mix included purified mushroom tyrosinase, PBS (pH 6.8) and substrate L-tyrosine. In the other triplicate wells, P9 or P10 were added at various concentrations. The reaction was incubated at 37 degrees Celsius and the plate was read periodically at 475 nanometers.
# [4] = MTT proliferation and viability assay; assay type: cell-based; settings: mouse, B16 cells, percentage of control, read-out: proliferation rate
# Protocol: Proliferation rates were determined using a general cell proliferation kit (e.g., TACS® MTT Cell Proliferation Kit from R&D systems). Cells were plated at 2.5×10E4 per well in 96-well plates in a humidified atmosphere with 5 percent CO2 at 37 degrees Celsius. Twenty-four hours after plating, test samples were added and cultures were incubated for an additional 72 hours. The remainder of the procedure was performed following the manufacturer's protocol.
# as §2
# [5] = tested on: purified mushroom tyrosinase; assay: Allosteric activation of tyrosinase after inhibition by 6BH4; assay type: biochemical
# Protocol: To investigate the mechanism by which P9 and P10 exert their stimulatory effect on tyrosinase, 6BH4, an allosteric inhibitor of tyrosinase, was used in an experiment. In a 96-well plate, control wells containing substrate L-tyrosine, purified mushroom tyrosinase, and PBS (pH 6.8) were incubated at 37 degrees Celsius and periodically read at 475 nanometers. After 6 minutes, 20 micromolar 6BH4 was added to all wells except controls. At minute 12, the other triplicate wells received one of the following reagents: 20 micromolar of α-MSH, 100 micromolar of P4, P9, or P10, or 200 micromolar L-tyrosine.
# In a 96-well plate the control wells contained substrate L-tyrosine, purified mushroom tyrosinase and PBS (pH 6.8). The plate was incubated at 37 degrees Celsius and periodically read at 475 nanometers. After six minutes, 6BH4 was added to all wells except the control triplicate. At minute 12, the other triplicate wells received one of the following reagents: 10 micromolar of α-MSH, 100 micromolar of P4, P9 or P10, and 200 micromolar L-tyrosine. Data shown are mean±SEM of three independent runs.
# [6] = 300 micromolar, 72 hours incubation
# [7] = 10 micromolar α-MSH added at minute 12 after 6BH4
# [8] = 600 micromolar L-tyrosine, 72 hours
molecule,measurement,setting,value
"YRSRK [P10, YRSRK]",intracellular melanin content increase,[1]; [6],62±6%
same,B16 tyrosinase activity increase,[2]; 3 millimolar,91±6%
same,B16 tyrosinase activity increase,[2]; 300 micromolar,48±5%
same,EC50,[2],~300 µM
same,mushroom tyrosinase activity increase,[3],156±4%
same,dopachrome formation increase,[3]; 30 micromolar,45±3%
same,dopachrome formation increase,[3]; 300 micromolar,134±3%
same,"viability at 72 h, 10 millimolar",[4],95 ± 2%
"C[C@H](O)[C@H](O)[C@H]1CNc2nc(N)[nH]c(=O)c2N1 [6BH4, (6R)-L-erythro-5,6,7,8-tetrahydrobiopterin]",inhibition of tyrosinase activity,[5]; 20 micromolar 6BH4 added after 6 minutes,inhibited completely
"YSSWY [P9, YSSWY]",extracellular melanin content increase,[1]; [6],170%
same,intracellular melanin content increase,[1]; [6],47±6%
same,B16 tyrosinase activity increase,[2]; 3 millimolar,84±3%
same,B16 tyrosinase activity increase,[2]; 300 micromolar,38±4%
same,EC50,[2],~300 µM
same,mushroom tyrosinase activity increase,[3],123±4%
same,dopachrome formation increase,[3]; 30 micromolar,28±3%
same,dopachrome formation increase,[3]; 300 micromolar,100±3%
same,"viability at 72 h, 10 millimolar",[4],94 ± 2%
"CC(C)Cn1c(=O)n(C)c(=O)c2[nH]cnc21 [IBMX, 3-isobutyl-1-methylxanthine]",extracellular melanin content increase,[1]; [6],187±9%
same,intracellular melanin content increase,[1]; [6],67±6%
"COc1cc2ccc(=O)oc2cc1OC [scoparone, Scoparone]",intracellular melanin content increase,"[1]; 50 microgram per milliliter scoparone, 72 hours",53±6.9%
α-Melanocyte Stimulating Hormone [α-MSH],reversal of 6BH4-dependent tyrosinase inhibition (reactivation of the enzyme),[5]; [7],reactivated the enzyme
same,"tyrosinase activity after reactivation, compared with control",[5]; [7],increased its activity to levels exceeding the control
N[C@@H](Cc1ccc(O)cc1)C(=O)O [L-tyrosine],extracellular melanin content increase,[1]; [8],43±5%
same,intracellular melanin content increase,[1]; [8],7±3%
same,reversal of 6BH4-dependent tyrosinase inhibition,[5]; 200 micromolar L-tyrosine added at minute 12 after 6BH4,neither the addition of P4 nor L-tyrosine reversed
